This note sets out measurements from publication PMC10892984, “Novel Antineoplastic Inducers of Mitochondrial Apoptosis in Human Cancer Cells” (Molecules, 2024).

The test system of this assay is HL-60 (TB). To be noted: for CC50: read-out: LC50; for TGI: HL-60 (TB), leukemia, mutant p53, 48 h.

Bounds are passed on as bounds.

On to `c1cc(CNC23CC4CC(CC(C4)C2)C3)cc(C[N+](Cc2cccc(CNC34CC5CC(CC(C5)C3)C4)c2)(Cc2cccc(CNC34CC5CC(CC(C5)C3)C4)c2)Cc2cccc(CNC34CC5CC(CC(C5)C3)C4)c2)c1` (centres unmarked) [Compound 1, tetrakis{3-[(tricyclo[3.3.1.1^3,7]decan-1-ammonio)methyl]benzyl}ammonium pentachloride], for which, under “Homo sapiens, HL-60, 48 h”, the CC50 is over 50 µM.

As usually defined, the TGI is the concentration giving total growth inhibition. The low end stands for greater sensitivity of the cells, the high end for lower sensitivity of the cells. By GI50 is commonly meant the concentration that inhibits growth by half. Low values mean greater sensitivity of the cells, high ones lower sensitivity of the cells. As for `COc1cc2c(c(OC)c1OC)-c1ccc(NNC(N)=S)c(=O)cc1C(NC(C)=O)CC2` [Compound 2, N-[(aS,7S)-10-(2-carbamothioylhydrazinyl)-1,2,3-trimethoxy-9-oxo-5,6,7,9-tetrahydrobenzo[a]heptalen-7-yl]acetamide monohydrate × ⅔ (ethyl acetate)], the total growth inhibition concentration (TGI) is 1.26 µM. In addition, for the setting “Homo sapiens, HL-60, 48 h”, growth was halved (GI50) at 0.113 µM and the CC50 was over 100 µM.

For `COc1cc2c(c(OC)c1OC)-c1ccc(NNC(=S)N(Cc3cccc(C[N+](Cc4cccc(CNC56CC7CC(CC(C7)C5)C6)c4)(Cc4cccc(CNC56CC7CC(CC(C7)C5)C6)c4)Cc4cccc(CN(C(=S)NNc5ccc6c(cc5=O)C(NC(C)=O)CCc5cc(OC)c(OC)c(OC)c5-6)C56CC7CC(CC(C7)C5)C6)c4)c3)C34CC5CC(CC(C5)C3)C4)c(=O)cc1C(NC(C)=O)CC2` [Compound 3, [(bis{3-[(tricyclo[3.3.1.1^3,7]decan-1-ylamino)methyl]benzyl}ammonio)bis(methanediylbenzene-3,1-diylmethanediyl)]di-2-[(aS,7S)-7-(acetylamino)-1,2,3-trimethoxy-9-oxo-5,6,7,9-tetrahydrobenzo[a]heptalen-10-yl]-N-(tricyclo[3.3.1.1^3,7]decan-1-yl)hydrazinecarbothioamide chloride pentahydrate], the TGI came to 1.03 µM.
